Activity calls are given as the source filed them. No cut-off for these calls is given here.

Results on three compounds are retold here after ChEMBL document CHEMBL5055652 (Bioorg Med Chem, 2021).

Assay type in all cases: cell-based
In one assay the target is T1, Progesterone receptor (Homo sapiens, UniProt P06401).
T1 sequence (P06401 whole entry): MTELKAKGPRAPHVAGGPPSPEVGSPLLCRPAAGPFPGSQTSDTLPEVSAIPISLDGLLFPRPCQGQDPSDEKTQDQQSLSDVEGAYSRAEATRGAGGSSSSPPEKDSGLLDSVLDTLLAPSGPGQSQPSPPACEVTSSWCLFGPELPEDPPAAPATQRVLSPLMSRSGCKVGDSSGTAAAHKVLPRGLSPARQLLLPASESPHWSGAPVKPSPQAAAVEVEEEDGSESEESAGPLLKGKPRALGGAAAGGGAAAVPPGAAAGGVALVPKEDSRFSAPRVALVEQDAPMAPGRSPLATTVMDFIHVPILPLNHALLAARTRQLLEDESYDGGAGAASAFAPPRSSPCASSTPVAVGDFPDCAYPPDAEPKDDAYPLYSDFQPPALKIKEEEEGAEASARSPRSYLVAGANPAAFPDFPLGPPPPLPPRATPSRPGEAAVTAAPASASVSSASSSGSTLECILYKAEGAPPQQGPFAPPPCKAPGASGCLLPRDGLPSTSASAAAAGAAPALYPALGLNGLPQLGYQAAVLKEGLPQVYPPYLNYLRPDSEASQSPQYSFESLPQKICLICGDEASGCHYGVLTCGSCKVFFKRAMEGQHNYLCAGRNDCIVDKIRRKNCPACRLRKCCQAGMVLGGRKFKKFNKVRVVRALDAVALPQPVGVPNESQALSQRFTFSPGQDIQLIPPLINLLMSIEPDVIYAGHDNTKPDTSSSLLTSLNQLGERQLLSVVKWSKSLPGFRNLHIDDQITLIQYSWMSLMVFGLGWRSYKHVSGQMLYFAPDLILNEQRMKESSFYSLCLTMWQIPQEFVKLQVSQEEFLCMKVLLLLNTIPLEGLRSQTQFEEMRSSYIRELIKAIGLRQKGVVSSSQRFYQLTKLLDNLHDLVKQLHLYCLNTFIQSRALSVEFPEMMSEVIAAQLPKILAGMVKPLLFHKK
The assay is described as follows: Agonist activity at PR in human T47D cells using p-nitrophenyl phosphate as substrate assessed as induction of alkaline phosphatase activity incubated for 72 hrs followed by substrate addition measured after 24 hrs by alkaline phosphatase assay.

Assay [1] deals with T2, Progesterone receptor (Homo sapiens) (UniProt P06401).
T2 sequence (whole entry): T1 sequence (P06401 whole entry)
The assay is described as follows: Agonist activity at PR in human T47D cells using p-nitrophenyl phosphate as substrate assessed as induction of alkaline phosphatase activity at 1 nM incubated for 72 hrs followed by substrate addition measured after 24 hrs by alkaline phosphatase assay relative to control. The conditions noted are these: filed as agonist, time 96.0 hrs.

The target in assay [2] is T2, Progesterone receptor (Homo sapiens). Kind of assay: Agonist activity at PR in human T47D cells using p-nitrophenyl phosphate as substrate assessed as induction of alkaline phosphatase activity at 125 nM incubated for 72 hrs followed by substrate addition measured after 24 hrs by alkaline phosphatase assay. The conditions noted are these: time 96.0 hrs.
The target is the same in assay [3]. The assay is described as follows: Agonist activity at PR in human T47D cells using p-nitrophenyl phosphate as substrate assessed as fold increase in alkaline phosphatase activity at 25 nM incubated for 72 hrs followed by substrate addition measured after 24 hrs by alkaline phosphatase assay relative to control. The conditions noted are these: filed as agonist, time 96.0 hrs.

With `CC(=O)O[C@@]1(C(C)=O)CC[C@H]2[C@@H]3CCC4=CC(=O)CC[C@@H]4[C@H]3[C@@H](C)C[C@@]21C`, the EC50 on Progesterone receptor is greater than 125 nM. The Activity in assay [1] worked out at 89.3%. For the same compound, the outcome in assay [2] was inactive.

Regarding `CC(=O)[C@H]1CC[C@H]2[C@@H]3CCC4=CC(=O)CC[C@]4(C)[C@H]3CC[C@]12C`, in assay [1], the Activity turned out to be 158%.

Consider `CC(=O)O[C@]1(C(C)=O)CC[C@H]2[C@@H]3CCC4=CC(=O)CC[C@@H]4[C@H]3[C@@H](C)C[C@@]21C` [NORGESTOMET], for which the EC50 at Progesterone receptor stood at 4.5 nM. Moreover, in assay [1], the Activity was determined as 106%. The fold change (FC) in assay [3] turned out to be 2.
